Experimental data taken from ChEMBL document CHEMBL1201862, “PubChem BioAssay data set” (2004).
Calls of active or inactive are those of the source.

Tests used:
[1] = molecular target: Voltage-dependent T-type calcium channel subunit alpha-1H (Homo sapiens, UniProt O95180); assay type: functional;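 further: channel activity triggered by adding a high calcium stimulation buffer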
[2] = molecular target: T1, Rac GTPase-activating protein 1 (Homo sapiens, UniProt Q9H0H5); experiment: MgcRacGAP GTPase-activating activity inhibitors, confirmation, biochemical, ADP Hunter fluorescence, primary and confirmatory (AID 624330); assay type: functional
T1 sequence (Q9H0H5 whole entry): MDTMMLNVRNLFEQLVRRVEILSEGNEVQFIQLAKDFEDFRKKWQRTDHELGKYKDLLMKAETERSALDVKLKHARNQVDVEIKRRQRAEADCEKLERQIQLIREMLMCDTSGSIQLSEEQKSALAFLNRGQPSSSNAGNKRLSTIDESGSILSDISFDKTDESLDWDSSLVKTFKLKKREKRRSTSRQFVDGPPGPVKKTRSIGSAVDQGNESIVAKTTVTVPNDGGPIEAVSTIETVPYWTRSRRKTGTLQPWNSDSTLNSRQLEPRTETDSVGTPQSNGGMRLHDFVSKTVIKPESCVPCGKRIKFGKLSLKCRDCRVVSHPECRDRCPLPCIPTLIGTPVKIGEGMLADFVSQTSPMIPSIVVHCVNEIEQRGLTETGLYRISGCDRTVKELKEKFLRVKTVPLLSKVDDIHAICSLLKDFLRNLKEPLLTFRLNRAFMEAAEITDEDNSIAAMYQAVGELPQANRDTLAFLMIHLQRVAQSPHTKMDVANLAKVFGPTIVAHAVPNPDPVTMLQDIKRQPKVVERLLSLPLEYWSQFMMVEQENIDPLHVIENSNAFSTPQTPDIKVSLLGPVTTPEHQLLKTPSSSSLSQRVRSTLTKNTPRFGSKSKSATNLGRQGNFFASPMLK

[3] = molecular target: T2, Corticotropin-releasing factor receptor 2/Corticotropin-releasing factor-binding protein (Homo sapiens, UniProt P24387+Q13324); experiment: activators of CRF receptor 2 with binding protein – uHTS hits, confirmation (AID 602473); assay type: functional; details: read-out: EC50_Mean
T2 sequence (Q13324 whole entry): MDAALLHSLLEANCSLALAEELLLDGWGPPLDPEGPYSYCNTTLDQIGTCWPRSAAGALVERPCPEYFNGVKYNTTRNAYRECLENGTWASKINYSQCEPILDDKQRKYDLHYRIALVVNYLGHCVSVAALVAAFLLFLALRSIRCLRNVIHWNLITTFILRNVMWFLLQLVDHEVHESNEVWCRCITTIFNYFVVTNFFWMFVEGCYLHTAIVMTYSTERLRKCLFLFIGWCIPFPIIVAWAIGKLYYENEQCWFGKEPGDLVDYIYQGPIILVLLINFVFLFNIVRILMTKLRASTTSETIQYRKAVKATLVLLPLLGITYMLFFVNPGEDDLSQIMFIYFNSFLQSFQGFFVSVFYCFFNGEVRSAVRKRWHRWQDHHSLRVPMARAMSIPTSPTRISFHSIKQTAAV
T2 sequence (P24387 whole entry): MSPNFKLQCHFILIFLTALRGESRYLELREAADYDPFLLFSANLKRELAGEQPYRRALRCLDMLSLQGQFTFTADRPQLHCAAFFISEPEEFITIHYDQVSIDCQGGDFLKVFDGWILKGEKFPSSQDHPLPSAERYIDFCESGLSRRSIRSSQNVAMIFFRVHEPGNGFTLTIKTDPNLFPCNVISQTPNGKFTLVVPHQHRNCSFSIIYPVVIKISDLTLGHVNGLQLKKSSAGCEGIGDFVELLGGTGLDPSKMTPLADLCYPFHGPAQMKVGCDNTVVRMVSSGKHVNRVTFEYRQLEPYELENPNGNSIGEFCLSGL

[4] = molecular target: T3, Short transient receptor potential channel 4 (Mus musculus, UniProt Q9QUQ5); experiment: mouse TRPC4 channel activators, dose response, cell-based, HEK293 TRPC4/mu-opioid, Fluo-4 calcium (AID 434937); assay type: functional
T3 sequence (Q9QUQ5 whole entry): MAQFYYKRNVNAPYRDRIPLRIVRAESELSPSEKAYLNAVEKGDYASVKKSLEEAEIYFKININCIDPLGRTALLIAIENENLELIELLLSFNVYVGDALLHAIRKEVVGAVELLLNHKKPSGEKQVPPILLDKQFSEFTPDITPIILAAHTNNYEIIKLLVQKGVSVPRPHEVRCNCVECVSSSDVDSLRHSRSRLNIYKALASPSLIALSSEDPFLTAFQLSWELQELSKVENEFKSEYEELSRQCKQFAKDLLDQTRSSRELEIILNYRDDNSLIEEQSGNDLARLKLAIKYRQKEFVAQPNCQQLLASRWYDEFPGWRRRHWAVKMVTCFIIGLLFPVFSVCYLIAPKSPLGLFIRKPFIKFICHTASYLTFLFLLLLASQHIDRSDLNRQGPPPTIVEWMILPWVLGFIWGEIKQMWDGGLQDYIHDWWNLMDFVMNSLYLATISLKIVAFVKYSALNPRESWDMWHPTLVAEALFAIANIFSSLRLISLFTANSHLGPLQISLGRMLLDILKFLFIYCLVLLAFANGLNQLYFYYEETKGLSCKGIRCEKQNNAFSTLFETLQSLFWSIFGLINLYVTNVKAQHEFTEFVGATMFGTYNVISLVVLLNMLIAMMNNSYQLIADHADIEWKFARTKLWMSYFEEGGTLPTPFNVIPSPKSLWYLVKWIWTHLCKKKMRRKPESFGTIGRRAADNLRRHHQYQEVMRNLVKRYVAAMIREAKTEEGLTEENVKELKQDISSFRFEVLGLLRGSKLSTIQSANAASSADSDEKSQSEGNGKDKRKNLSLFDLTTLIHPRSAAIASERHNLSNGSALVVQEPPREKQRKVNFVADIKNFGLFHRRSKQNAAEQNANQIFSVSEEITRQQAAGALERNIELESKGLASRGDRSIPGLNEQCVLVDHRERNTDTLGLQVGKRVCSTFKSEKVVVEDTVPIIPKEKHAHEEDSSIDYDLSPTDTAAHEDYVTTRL

[5] = molecular target: T3, Short transient receptor potential channel 4; experiment: mouse TRPC4 channel inhibitors, dose response, cell-based, HEK293 TRPC4/mu-opioid, Fluo-4 calcium (AID 434942); assay type: functional;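 further: potency of inhibitors blocking the TRPC4 calcium response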
[6] = inhibitors of intracellular T. cruzi replication, confirmation, NIH3T3 host cells, beta-gal luminescence (AID 2044); assay type: functional, cell-based;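 further: intracellular parasites grown in NIH/3T3 mouse fibroblasts as host cells; luminescent beta-galactosidase reporter signal from transgenic T. cruzi replicating inside host cells; inhibitors lower the luminescence signal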
Fatty acid synthase [7] = molecular target: T4, Fatty acid synthase (Homo sapiens, UniProt P49327); experiment: FAS thioesterase domain inhibitors, dose response, biochemical, endpoint fluorescence intensity, uHTS hits (AID 624327); assay type: functional;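 further: fluorescence from hydrolysis of an O-methyl fluorescein acyl ester substrate by the enzyme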
T4 sequence (P49327 whole entry, the tested form may be a part): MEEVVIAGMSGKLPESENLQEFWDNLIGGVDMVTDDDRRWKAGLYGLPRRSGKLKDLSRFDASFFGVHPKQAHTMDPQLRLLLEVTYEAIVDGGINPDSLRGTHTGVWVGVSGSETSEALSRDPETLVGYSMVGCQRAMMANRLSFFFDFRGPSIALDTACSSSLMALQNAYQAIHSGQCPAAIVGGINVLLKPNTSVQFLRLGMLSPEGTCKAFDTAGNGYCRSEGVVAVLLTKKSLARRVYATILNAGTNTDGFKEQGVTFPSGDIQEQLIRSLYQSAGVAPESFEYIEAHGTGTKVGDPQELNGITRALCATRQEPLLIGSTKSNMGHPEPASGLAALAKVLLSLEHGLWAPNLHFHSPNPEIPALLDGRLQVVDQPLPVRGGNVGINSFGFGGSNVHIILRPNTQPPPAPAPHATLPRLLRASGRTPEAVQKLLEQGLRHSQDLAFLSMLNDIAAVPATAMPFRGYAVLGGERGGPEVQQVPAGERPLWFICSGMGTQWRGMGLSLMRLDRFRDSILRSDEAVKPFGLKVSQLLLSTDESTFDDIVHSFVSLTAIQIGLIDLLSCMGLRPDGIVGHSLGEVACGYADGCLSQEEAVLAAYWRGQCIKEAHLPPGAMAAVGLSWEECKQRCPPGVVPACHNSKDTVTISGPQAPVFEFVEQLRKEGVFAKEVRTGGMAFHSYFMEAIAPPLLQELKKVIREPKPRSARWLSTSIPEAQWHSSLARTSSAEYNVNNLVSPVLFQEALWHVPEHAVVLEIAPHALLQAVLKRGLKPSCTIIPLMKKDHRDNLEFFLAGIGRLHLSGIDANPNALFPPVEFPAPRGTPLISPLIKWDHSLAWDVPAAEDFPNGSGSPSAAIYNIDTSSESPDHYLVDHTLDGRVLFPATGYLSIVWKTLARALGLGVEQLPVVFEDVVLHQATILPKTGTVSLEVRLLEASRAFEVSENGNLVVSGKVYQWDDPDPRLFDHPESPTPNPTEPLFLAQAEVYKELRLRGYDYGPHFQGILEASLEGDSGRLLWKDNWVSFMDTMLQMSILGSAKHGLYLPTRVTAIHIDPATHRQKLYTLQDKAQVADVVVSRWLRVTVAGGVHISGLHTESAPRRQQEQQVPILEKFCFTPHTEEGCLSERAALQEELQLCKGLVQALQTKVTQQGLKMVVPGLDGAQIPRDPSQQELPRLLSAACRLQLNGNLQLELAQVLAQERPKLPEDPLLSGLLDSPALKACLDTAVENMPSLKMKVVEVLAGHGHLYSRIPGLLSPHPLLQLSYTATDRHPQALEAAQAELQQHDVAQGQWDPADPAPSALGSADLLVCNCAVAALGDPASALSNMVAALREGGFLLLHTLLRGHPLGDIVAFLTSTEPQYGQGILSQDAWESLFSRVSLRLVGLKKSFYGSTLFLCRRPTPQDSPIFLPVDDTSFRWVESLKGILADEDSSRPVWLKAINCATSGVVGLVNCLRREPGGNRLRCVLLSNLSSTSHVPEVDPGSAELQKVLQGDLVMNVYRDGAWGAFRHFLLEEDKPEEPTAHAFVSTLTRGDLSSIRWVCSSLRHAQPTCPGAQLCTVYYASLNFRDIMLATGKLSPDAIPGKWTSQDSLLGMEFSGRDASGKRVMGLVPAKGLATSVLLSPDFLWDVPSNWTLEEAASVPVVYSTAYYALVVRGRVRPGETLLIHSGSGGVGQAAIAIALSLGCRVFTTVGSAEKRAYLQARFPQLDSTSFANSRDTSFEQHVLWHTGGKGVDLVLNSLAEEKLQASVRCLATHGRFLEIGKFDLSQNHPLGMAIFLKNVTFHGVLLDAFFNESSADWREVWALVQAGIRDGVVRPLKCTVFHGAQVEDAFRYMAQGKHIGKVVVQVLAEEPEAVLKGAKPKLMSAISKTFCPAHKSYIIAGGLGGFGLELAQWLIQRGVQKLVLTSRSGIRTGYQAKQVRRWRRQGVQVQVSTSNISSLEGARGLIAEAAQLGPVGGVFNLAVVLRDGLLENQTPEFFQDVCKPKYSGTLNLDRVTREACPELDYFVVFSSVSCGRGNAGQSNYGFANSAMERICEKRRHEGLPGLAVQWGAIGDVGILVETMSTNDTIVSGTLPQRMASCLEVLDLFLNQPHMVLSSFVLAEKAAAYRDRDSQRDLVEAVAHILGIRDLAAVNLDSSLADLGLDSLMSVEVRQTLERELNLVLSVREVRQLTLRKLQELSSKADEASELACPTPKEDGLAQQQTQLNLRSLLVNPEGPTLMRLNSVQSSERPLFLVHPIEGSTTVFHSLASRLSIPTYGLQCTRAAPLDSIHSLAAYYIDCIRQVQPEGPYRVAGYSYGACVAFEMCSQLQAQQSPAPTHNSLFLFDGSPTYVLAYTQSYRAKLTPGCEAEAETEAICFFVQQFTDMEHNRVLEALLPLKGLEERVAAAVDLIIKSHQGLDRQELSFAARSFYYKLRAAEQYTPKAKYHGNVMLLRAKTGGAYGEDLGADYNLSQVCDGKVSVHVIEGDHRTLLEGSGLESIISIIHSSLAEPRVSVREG

[8] = cytotoxicity toward NIH3T3 fibroblasts, dose response, counter-screen, cell-based, ATP luminescence, mouse fibroblasts (AID 2010); assay type: functional;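 further: cells exposed to compound for about 90 hours before reading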
Fatty acid synthase [9] = molecular target: T4, Fatty acid synthase; experiment: FAS thioesterase domain inhibitors, dose response, biochemical, kinetic fluorescence intensity (AID 624326); assay type: functional;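 further: rate of fluorescence rise from hydrolysis of a fluorogenic O-methyl fluorescein ester substrate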
Cytochrome P450 2C9 = Cytochrome P450 2C9 (Homo sapiens, UniProt P11712)
Cytochrome P450 2C19 = Cytochrome P450 2C19 (Homo sapiens, UniProt P33261); experiment: Cytochrome panel assay with activity outcomes. Panel member name: p450-cyp2c19 Compounds with AC50 equal or less than 10 uM are considered active; assay type: functional; details: read-out: AC50
[10] = molecular target: T5, DNA repair protein RAD52 homolog (Homo sapiens, UniProt P43351); assay type: functional, biochemical
T5 sequence (P43351 whole entry): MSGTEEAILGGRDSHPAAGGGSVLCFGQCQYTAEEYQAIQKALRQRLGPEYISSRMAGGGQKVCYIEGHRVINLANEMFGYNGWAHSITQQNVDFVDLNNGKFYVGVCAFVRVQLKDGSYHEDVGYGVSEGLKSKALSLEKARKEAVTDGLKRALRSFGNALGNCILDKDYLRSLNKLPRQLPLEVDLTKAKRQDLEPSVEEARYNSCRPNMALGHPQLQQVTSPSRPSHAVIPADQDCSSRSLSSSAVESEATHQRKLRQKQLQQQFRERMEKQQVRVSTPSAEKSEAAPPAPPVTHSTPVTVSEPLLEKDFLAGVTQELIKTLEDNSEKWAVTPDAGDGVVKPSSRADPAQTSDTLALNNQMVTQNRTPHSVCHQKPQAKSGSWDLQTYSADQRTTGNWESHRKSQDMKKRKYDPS

Vero = experiment: cells; assay type: functional; details: Chlorocebus sabaeus
[11] = molecular target: T6, DNA repair and recombination protein RAD54-like (Homo sapiens, UniProt Q92698); experiment: inhibitors of human RAD54 branch migration, confirmation, biochemical, fluorescence, cherry-picked samples, dose series (AID 651657); assay type: functional
T6 sequence (Q92698 whole entry): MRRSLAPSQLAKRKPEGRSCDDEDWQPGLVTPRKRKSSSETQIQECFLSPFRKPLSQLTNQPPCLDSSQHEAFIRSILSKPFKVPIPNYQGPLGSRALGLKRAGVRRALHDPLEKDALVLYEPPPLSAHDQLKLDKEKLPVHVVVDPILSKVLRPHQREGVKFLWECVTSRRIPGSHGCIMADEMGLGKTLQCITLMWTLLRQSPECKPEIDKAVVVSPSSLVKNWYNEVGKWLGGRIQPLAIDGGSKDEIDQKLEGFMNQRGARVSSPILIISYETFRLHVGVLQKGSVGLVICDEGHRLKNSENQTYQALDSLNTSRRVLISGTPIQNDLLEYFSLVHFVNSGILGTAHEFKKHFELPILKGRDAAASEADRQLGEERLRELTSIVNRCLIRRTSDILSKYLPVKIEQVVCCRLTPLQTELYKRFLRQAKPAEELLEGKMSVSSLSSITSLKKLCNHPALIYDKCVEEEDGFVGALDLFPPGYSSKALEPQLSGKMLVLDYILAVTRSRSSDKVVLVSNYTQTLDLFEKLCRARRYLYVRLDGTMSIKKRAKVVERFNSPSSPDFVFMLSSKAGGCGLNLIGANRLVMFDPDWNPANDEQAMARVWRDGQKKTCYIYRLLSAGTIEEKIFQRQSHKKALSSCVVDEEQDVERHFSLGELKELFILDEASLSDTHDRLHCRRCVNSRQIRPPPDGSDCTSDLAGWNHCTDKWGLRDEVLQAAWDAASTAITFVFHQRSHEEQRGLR

Sequence of Voltage-dependent T-type calcium channel subunit alpha-1H (O95180 whole entry): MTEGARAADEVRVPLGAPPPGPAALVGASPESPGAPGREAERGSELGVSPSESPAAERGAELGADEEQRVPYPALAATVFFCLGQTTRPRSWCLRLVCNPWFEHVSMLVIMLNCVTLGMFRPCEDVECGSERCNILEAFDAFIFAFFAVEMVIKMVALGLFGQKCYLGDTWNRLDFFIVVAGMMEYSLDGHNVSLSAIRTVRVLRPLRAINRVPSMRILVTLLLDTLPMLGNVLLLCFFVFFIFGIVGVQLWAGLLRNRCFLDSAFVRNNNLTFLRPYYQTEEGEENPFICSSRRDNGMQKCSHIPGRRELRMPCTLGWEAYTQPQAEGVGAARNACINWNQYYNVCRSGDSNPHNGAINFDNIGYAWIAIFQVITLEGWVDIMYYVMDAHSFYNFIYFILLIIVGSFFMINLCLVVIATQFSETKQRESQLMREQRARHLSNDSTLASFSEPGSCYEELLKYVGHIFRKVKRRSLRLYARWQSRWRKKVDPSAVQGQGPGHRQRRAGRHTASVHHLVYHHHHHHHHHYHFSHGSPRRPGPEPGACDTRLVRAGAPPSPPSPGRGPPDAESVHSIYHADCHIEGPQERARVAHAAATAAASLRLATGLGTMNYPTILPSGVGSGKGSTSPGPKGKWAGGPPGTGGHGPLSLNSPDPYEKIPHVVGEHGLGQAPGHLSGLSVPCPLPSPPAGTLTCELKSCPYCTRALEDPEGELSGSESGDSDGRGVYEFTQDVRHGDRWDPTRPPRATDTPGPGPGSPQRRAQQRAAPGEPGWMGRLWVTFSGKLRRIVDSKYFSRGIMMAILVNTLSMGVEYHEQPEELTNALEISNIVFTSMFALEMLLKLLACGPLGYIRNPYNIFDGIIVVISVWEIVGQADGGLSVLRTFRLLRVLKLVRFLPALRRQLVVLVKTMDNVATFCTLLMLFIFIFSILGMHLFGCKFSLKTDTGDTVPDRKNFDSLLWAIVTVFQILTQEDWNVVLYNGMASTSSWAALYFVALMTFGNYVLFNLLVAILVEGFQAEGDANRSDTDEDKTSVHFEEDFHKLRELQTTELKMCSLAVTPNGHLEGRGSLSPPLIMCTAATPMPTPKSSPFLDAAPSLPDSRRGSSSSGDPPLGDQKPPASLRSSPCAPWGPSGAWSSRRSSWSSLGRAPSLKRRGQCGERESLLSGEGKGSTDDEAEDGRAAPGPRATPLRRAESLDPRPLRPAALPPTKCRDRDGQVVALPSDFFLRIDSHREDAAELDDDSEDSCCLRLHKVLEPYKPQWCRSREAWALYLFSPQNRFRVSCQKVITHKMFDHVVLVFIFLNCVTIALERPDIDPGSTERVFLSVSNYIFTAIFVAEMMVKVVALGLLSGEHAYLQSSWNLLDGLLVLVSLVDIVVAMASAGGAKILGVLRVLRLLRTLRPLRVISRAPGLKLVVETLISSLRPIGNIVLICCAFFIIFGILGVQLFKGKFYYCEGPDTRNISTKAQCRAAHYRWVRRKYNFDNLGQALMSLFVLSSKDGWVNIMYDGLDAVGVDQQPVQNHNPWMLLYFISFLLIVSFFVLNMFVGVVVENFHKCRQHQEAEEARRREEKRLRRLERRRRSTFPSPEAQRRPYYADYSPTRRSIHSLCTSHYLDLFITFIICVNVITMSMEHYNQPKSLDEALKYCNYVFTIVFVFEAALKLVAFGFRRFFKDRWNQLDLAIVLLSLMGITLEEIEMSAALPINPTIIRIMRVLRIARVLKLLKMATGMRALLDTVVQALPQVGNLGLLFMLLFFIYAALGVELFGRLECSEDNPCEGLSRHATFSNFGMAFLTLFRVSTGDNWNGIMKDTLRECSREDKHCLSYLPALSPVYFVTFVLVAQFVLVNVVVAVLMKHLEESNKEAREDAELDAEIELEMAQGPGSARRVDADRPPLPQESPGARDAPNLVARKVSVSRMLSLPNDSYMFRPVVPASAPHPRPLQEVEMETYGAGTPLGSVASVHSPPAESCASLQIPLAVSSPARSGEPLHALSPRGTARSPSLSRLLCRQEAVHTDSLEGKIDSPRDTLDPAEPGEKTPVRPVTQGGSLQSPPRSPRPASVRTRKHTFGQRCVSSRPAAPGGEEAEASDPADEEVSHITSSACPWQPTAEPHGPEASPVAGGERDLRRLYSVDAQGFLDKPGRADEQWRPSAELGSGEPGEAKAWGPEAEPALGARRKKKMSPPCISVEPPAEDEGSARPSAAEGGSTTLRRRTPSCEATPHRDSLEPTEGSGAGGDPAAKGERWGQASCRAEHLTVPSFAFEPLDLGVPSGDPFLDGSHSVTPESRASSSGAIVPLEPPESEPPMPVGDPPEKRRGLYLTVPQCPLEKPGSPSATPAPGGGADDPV

CCCCN(C)C(=O)C1CCN(Cc2ccc(OCc3ccccc3)cc2)CC1
EC50 [1]: 7.3 µM (active)
IC50 [2]: 204 µM (active)

Cc1ccccc1Cn1nc(C)c(NC(=O)c2noc3c2CCc2ccccc2-3)c1C
EC50 [1]: 1.92 µM (active)

O=C1c2ccccc2S(=O)(=O)c2cc(C(=O)N(c3ccccn3)c3ccccn3)ccc21
EC50 [3]: 4.15 µM (active)
EC50 [4]: 1.88 µM (active)

COCCn1nnnc1C(c1cccs1)N1CCN(c2cccc(C(F)(F)F)c2)CC1 (centres undefined)
EC50 [1]: 97.8 µM (active)

O=C(NC1CCCCC1)N1CCN(C(c2ccccc2)c2ccccc2)CC1
EC50 [5]: 1.5 µM (active)

CCCN(c1nc(C)cc(OC)n1)S(=O)(=O)c1ccccc1
EC50 [5]: 2.11 µM (active)

Cc1c([N+](=O)[O-])cc(C(=O)Nc2ccc(Cc3ccncc3)cc2)cc1[N+](=O)[O-]
EC50 [6]: 0.799 µM (active)
IC50 (Fatty acid synthase [7]): 7.27 µM (active)
EC50 [8]: > 60 µM (not active)
IC50 (Fatty acid synthase [9]): 8.08 µM (active)

CCOc1ccc(NC(=O)c2cc([N+](=O)[O-])ccc2N2CCOCC2)cc1
IC50 (Fatty acid synthase [7]): 13.4 µM (active)
IC50 (Fatty acid synthase [9]): 13.7 µM (active)

CCC(SC1=N/C(=C/c2ccccc2OC)C(=O)N1c1ccccc1)C(=O)Nc1cc(C)on1 (centres undefined)
EC50 [1]: 4.23 µM (active)

COc1ccc(/C=C(/NC(=O)c2ccc([N+](=O)[O-])cc2)C(=O)NCCCN(C)C)cc1
IC50 (Fatty acid synthase [7]): 5.03 µM (active)
IC50 (Fatty acid synthase [9]): 3.13 µM (active)

CCn1c(N2CCN(C(S)=NCCc3ccccc3)CC2)nc2ccccc21
EC50 [4]: 0.376 µM (active)

COc1ccc(C(CNC(=O)Cc2cccs2)N(C)C)cc1 (centres undefined)
EC50 [4]: 0.237 µM (active)

COc1ccc(C(=O)NC(C)CCc2ccccc2)cc1[N+](=O)[O-] (centres undefined)
IC50 (Fatty acid synthase [7]): 13.4 µM (active)
IC50 (Fatty acid synthase [9]): 9.58 µM (active)

COC(=O)[C@@]1(Cc2ccc(F)cc2)[C@H]2c3cc(C(=O)N(C)C)n(CCc4ccccn4)c3C[C@H]2CN1C(=O)c1ccccc1
AC50 (Cytochrome P450 2C9): 10 µM (inconclusive)
EC50 [4]: 5.96 µM (active)
AC50 (Cytochrome P450 2C19): 39.8 µM (inconclusive)

Cc1nn(Cc2ccc(Cl)c(Cl)c2)c(C)c1NC(=O)c1cn(-c2ccccc2)nc1-c1ccccc1
EC50 [6]: 1.99 µM (active)
EC50 [1]: 5.29 µM (active)
EC50 [8]: > 60 µM (not active)

CN(C)CCCN(C(=O)c1ccc(C(=O)c2ccccc2)cc1)c1nc2ccc(F)cc2s1
EC50 [6]: 0.104 µM (active)
EC50 [8]: > 60 µM (not active)
EC50 [4]: 5.96 µM (active)

CCN(CC)CC(O)c1ccc2ccc3ccc(O)cc3c2c1 (centres undefined)
AC50 [10]: 7.92 µM (active)
CC50 (Vero): > 25 µM (active)
AC50 [11]: 23.3 µM (active)

CCOc1ccccc1CN1CCNC(=O)C1CC(=O)NCCc1ccccn1 (centres undefined)
EC50 [4]: 5.96 µM (active)

COc1ccc2cc3cc(C(=O)NCCCN4CCC(C)CC4)oc3nc2c1
AC50 [11]: 29.2 µM (active)

CN(C)CCN(C(=O)CN1C(=O)c2ccccc2C1=O)c1nc2cc3c(cc2s1)OCO3
AC50 [10]: 23.9 µM (active)
AC50 [11]: 41.5 µM (active)

COc1ccc2[nH]c3c(c2c1)CCN1C(=O)C(CC(=O)NCc2ccco2)C[C@H](C(=O)N2CCOCC2)[C@@]31CCC1CCCC1 (some centres undefined)
IC50 (Fatty acid synthase [7]): 5.98 µM (active)
IC50 (Fatty acid synthase [9]): 4.73 µM (active)

COc1ccc(-c2noc(CSc3nnc(Cc4ccccc4)n3-c3cccc(C)c3)n2)cc1OC
EC50 [1]: 4.35 µM (active)

CCCN1CCN(C(S)=Nc2ccc3nc(N4CCN(CC)CC4)cc(C)c3c2)CC1
AC50 [10]: 15.3 µM (active)
AC50 [11]: 82.8 µM (active)

COc1ccc(Cl)cc1-c1cc(C(=O)NCc2cccc(Cl)c2)[nH]n1
IC50 (Fatty acid synthase [7]): 12.4 µM (active)
IC50 (Fatty acid synthase [9]): 5.46 µM (active)
